The values that follow come from ChEMBL document CHEMBL3352337, “Scaffold-switching: an exploration of 5,6-fused bicyclic heteroaromatics systems to afford antituberculosis activity akin to the imidazo[1,2-a]pyridine-3-carboxylates” (Bioorg Med Chem Lett, 2014).

The subject of experiment [1] is Mycobacterium tuberculosis. The experiment in a line: Antitubercular activity against Mycobacterium tuberculosis H37Rv ATCC 27294 in 7H12 medium after 7 days by Microplate Alamar Blue assay. It is filed as functional. As to conditions: H37Rv ATCC 27294, 168 h.
Experiment [2] concerns Mycobacterium tuberculosis. The experiment can be described thus: Antitubercular activity against Mycobacterium tuberculosis H37Rv ATCC 27294 in glycerol-alanine-salts medium after 7 days by Microplate Alamar Blue assay. It is filed as functional. As to conditions: H37Rv ATCC 27294, 168 h. Background: Alamar Blue is a resazurin reagent that responds to reducing activity.
The test system of a further experiment is Candida albicans. The experiment in a line: Antimicrobial activity against Candida albicans by broth microdilution assay. It is filed as functional.
Experiment [3] concerns Mycobacteroides abscessus. The experiment in a line: Antimycobacterial activity against Mycobacterium abscessus ATCC 19977 in 7H9 medium after 3 days and 4 hrs after adding resazurin dye/Tween 80 by Microplate Alamar Blue assay. It is filed as functional.
The subject of the next experiment is Mycobacteroides chelonae. The experiment in a line: Antimycobacterial activity against Mycobacterium chelonae ATCC 35752 in 7H9 medium after 3 days and 4 hrs after adding resazurin dye/Tween 80 by Microplate Alamar Blue assay. It is filed as functional.
The test system of a further experiment is Escherichia coli. The experiment can be described thus: Antimicrobial activity against Escherichia coli by broth microdilution assay. In kind it is functional. A general note: Dilution methods test growth across graded concentrations, often in twofold steps.
In a further experiment the test system is Staphylococcus aureus. The experiment in a line: Antimicrobial activity against Staphylococcus aureus by broth microdilution assay. In kind it is functional.
Experiment [4] concerns Mycolicibacterium smegmatis. The experiment in a line: Antimycobacterial activity against Mycobacterium smegmatis by broth microdilution assay. It is filed as functional.
The test system of experiment [5] is Mycobacterium tuberculosis. The experiment in a line: Antitubercular activity against Mycobacterium tuberculosis H37Rv transfected with pFCA-luxAB in 7H12 medium after 10 days by low-oxygen recovery assay. It is filed as functional. As to conditions: 240 h.
The next experiment relates to Mycobacterium marinum. The experiment can be described thus: Antimycobacterial activity against Mycobacterium marinum ATCC 927 in 7H9 medium after 5 days and 6 hrs after adding resazurin dye/Tween 80 by Microplate Alamar Blue assay. It is filed as functional.
Another experiment relates to Vero. The experiment in a line: Cytotoxicity against African green monkey Vero cells assessed as cell viability after 72 hrs by CellTiter 96 assay. As to conditions: Chlorocebus sabaeus. In kind it is cell-based.
In a further experiment the test system is Mycobacterium kansasii. The experiment in a line: Antimycobacterial activity against Mycobacterium kansasii ATCC 12478 in 7H9 medium after 6 days and 18 hrs after adding resazurin dye/Tween 80 by Microplate Alamar Blue assay. In kind it is functional.
Another experiment deals with Mycobacterium avium. The experiment can be described thus: Antimycobacterial activity against Mycobacterium avium ATCC 15769 in 7H9 medium after 6 days and 18 hrs after adding resazurin dye/Tween 80 by Microplate Alamar Blue assay. In kind it is functional.

Values after ≈ are worked out from the molar mass of the structure shown. Where only a bound is given, the exact number is not on record here.

As for `Cc1ccc2nc(C)c(C(=O)OCc3ccccc3)n2c1`, the figures for the MIC90 in [1] and in [2] were 0.004 µM (≈ 0.00112 µg/mL) and 0.004 µM, respectively.
In the case of `Cc1cnc2nc(C)c(C(=O)OCc3ccccc3)n2c1`, the figures for the MIC90 in [1] and in experiment [2] were 1.4 µM (≈ 0.394 µg/mL) and 1.4 µM, respectively.
For the compound `Cc1cc(C)n2nc(C(=O)NCc3ccccc3)nc2n1`, the figures for the MIC90 in experiment [1], in experiment [2] and in experiment [5] were above 128 µM, 126 µM and above 128 µM, respectively. Further, the MIC (against Candida albicans; in [3]; with Mycobacteroides chelonae; in the experiment with Escherichia coli; in the experiment with Staphylococcus aureus; in experiment [4]) was above 128 µM in each case. Besides, the MIC against Mycobacterium marinum, with Mycobacterium kansasii and in the experiment with Mycobacterium avium was above 128 µM throughout. The IC50 in the experiment on Vero is above 128 µM.
As for `O=[N+]([O-])c1cn2c(n1)OC[C@@H](OCc1ccc(OC(F)(F)F)cc1)C2` [PRETOMANID], the figures for the MIC90 in [1], in [2] and in experiment [5] were 0.09 µM (≈ 0.0323 µg/mL), 0.12 µM and 4.9 µM (≈ 1.76 µg/mL), respectively. Besides, the IC50 with Vero was above 128 µM.
With `Cc1ccc2nc(C)c(C(=O)NCc3ccccc3)n2n1`, the figures for the MIC90 in experiment [1], in experiment [2] and in experiment [5] were above 128 µM, 63.8 µM and above 128 µM, respectively. Moreover, the MIC (in the experiment on Candida albicans; in experiment [3]; in the experiment on Mycobacteroides chelonae; with Escherichia coli; against Staphylococcus aureus; in experiment [4]) was above 128 µM throughout. Also, the MIC in the experiment on Mycobacterium marinum, with Mycobacterium kansasii and in the experiment with Mycobacterium avium was above 128 µM throughout. Moreover, the half-maximal inhibitory concentration (IC50) with Vero stood at 24.7 µM.
For `Cc1ccc2c(C(=O)NCc3ccccc3)n[nH]c2c1`, the MIC90 is above 128 µM in experiment [1], 40.8 µM in experiment [2] and above 128 µM in [5]. The MIC (in the experiment with Candida albicans; in experiment [3]; against Mycobacteroides chelonae; against Escherichia coli; in the experiment on Staphylococcus aureus; in experiment [4]) was above 128 µM in each case. The MIC against Mycobacterium marinum, against Mycobacterium kansasii and in the experiment on Mycobacterium avium was above 128 µM throughout. In addition, in the experiment on Vero, the IC50 was above 128 µM.
As for `Cc1cnc2nc(C)c(C(=O)NCc3ccccc3)n2c1`, the MIC90 in [1] was 6.95 µM (≈ 1.95 µg/mL); in experiment [2], 1.27 µM; in [5] it was above 128 µM. Moreover, the minimum inhibitory concentration (MIC) (with Candida albicans; in [3]; in the experiment with Mycobacteroides chelonae; against Escherichia coli; in the experiment with Staphylococcus aureus; in experiment [4]) was above 128 µM throughout. For the same compound, the MIC was above 128 µM against Mycobacterium marinum, 18.7 µM (≈ 5.24 µg/mL) against Mycobacterium kansasii and 122 µM (≈ 34.2 µg/mL) with Mycobacterium avium. Besides, the IC50 with Vero is above 128 µM.
Regarding `Cc1cn2c(C(=O)OCc3ccccc3)c(C)nc2cn1`, the results for the MIC90 in experiment [1] and in experiment [2] were 2.3 µM (≈ 0.647 µg/mL) and 2.3 µM, respectively.
Regarding `CO[C@H]1/C=C/O[C@@]2(C)Oc3c(C)c(O)c4c(O)c(c(/C=N/N5CCN(C)CC5)c(O)c4c3C2=O)NC(=O)/C(C)=C\C=C\[C@H](C)[C@H](O)[C@@H](C)[C@@H](O)[C@@H](C)[C@H](OC(C)=O)[C@@H]1C` [RIFAMPIN], the MIC90 in experiment [1] turned out to be 0.06 µM (≈ 0.0494 µg/mL); in experiment [2] it was 0.11 µM. Besides, the MIC in experiment [3] was 162 µM (≈ 133 µg/mL); against Mycobacteroides chelonae it was above 100 µM; in the experiment with Mycobacterium marinum, 1.2 µM (≈ 0.988 µg/mL); in the experiment with Mycobacterium kansasii, 0.03 µM (≈ 0.0247 µg/mL); with Mycobacterium avium, below 0.78 µM.
Take `Cc1cc2nc(C)c(C(=O)OCc3ccccc3)n2c(C)n1`: the results for the MIC90 in experiment [1] and in experiment [2] were 1.1 µM (≈ 0.325 µg/mL) and 1.1 µM, respectively.
Consider `NNC(=O)c1ccncc1` [ISONIAZID], for which the MIC in [3] was above 500 µM; in the experiment on Mycobacteroides chelonae, above 500 µM; against Mycobacterium marinum, above 1000 µM; against Mycobacterium kansasii, 9.1 µM (≈ 1.25 µg/mL); in the experiment on Mycobacterium avium it was above 500 µM.
In the case of `COc1c(N2C[C@@H]3CCCN[C@@H]3C2)c(F)cc2c(=O)c(C(=O)O)cn(C3CC3)c12` [MOXIFLOXACIN], the MIC in experiment [3] was 22.4 µM (≈ 8.99 µg/mL); with Mycobacteroides chelonae, 0.24 µM (≈ 0.0963 µg/mL); in the experiment with Mycobacterium marinum it was 12.4 µM (≈ 4.98 µg/mL); against Mycobacterium kansasii it was 0.12 µM (≈ 0.0482 µg/mL); against Mycobacterium avium, 6.1 µM (≈ 2.45 µg/mL).
In the case of `Cc1ccn2c(C(=O)NCc3ccccc3)nnc2c1`, the MIC90 in experiment [1] was above 128 µM; in [2], 101 µM; in experiment [5], above 128 µM. Further, the MIC (with Candida albicans; in experiment [3]; against Mycobacteroides chelonae; against Escherichia coli; in the experiment on Staphylococcus aureus; in experiment [4]) was above 128 µM each time. The MIC against Mycobacterium marinum, in the experiment with Mycobacterium kansasii and with Mycobacterium avium was above 128 µM in each case. In the experiment with Vero, the IC50 was above 128 µM.
Regarding `Cc1ccc2nc(C)c(C(=O)NCc3ccccc3)n2c1`, the MIC90 is 0.49 µM (≈ 0.137 µg/mL) in experiment [1], 0.11 µM in [2] and above 128 µM in experiment [5]. The MIC in the experiment with Candida albicans was above 128 µM; in [3], above 128 µM; against Mycobacteroides chelonae, 94 µM (≈ 26.3 µg/mL); against Escherichia coli it was above 128 µM; with Staphylococcus aureus, above 128 µM; in experiment [4], above 128 µM. In addition, the minimum inhibitory concentration (MIC) is above 128 µM against Mycobacterium marinum, 4 µM (≈ 1.12 µg/mL) in the experiment with Mycobacterium kansasii and 15.7 µM (≈ 4.39 µg/mL) against Mycobacterium avium. In addition, the IC50 in the experiment on Vero was above 128 µM.
Consider `Cc1ccc2c(C(=O)NCc3ccccc3)c(C)[nH]c2c1`, for which the MIC90 in experiment [1] was above 128 µM; in [2], 43.8 µM; in experiment [5] it was above 128 µM. Further, the MIC (in the experiment on Candida albicans; in [3]; in the experiment on Mycobacteroides chelonae; with Escherichia coli; in the experiment on Staphylococcus aureus; in experiment [4]) was above 128 µM in each case. For the same compound, the MIC with Mycobacterium marinum, against Mycobacterium kansasii and in the experiment with Mycobacterium avium was above 128 µM throughout. The IC50 with Vero was above 128 µM.
As for `Cc1ccn2c(C)c(C(=O)NCc3ccccc3)nc2c1`, the MIC90 is above 128 µM in experiment [1], 70 µM in experiment [2] and above 128 µM in [5]. The MIC (against Candida albicans; in experiment [3]; against Mycobacteroides chelonae; against Escherichia coli; in the experiment with Staphylococcus aureus; in [4]) was above 128 µM each time. Moreover, the MIC in the experiment on Mycobacterium marinum, in the experiment with Mycobacterium kansasii and against Mycobacterium avium was above 128 µM in each case. Also, the IC50 with Vero was above 128 µM.

Broadly, the MIC90 is an inhibitory concentration at the 90% level, which refers to growth in some studies and to a panel of isolates in others. By MIC is commonly meant the least concentration at which growth counts as inhibited. Usually IC50 stands for the midpoint of a concentration-inhibition curve.
